Results on 5 compounds are retold here after US9655840B2, “Wound care products” (RIGSHOSPITALET, COPENHAGEN UNIVERSITY HOSPITAL, priority 2009, dated 2017).

Counter-ions that a name gives are not always drawn. Like-named read-outs stand apart in the source and are kept apart here.

One assay concerns P. aeruginosa biofilm. Kind of assay: static 24 hour old biofilm in microtiter dishes, CFU after treatment. Format: cell-based. The note with it: for synergistic antimicrobial effect in combination with acetic acid: combined with 0.5% acetic acid, static biofilm; for antimicrobial effect on static biofilm (CFU): 0.5% acetic acid. The text has this:
AB minimal medium without acetic acid adjusted to different pH values was used as control.
AB minimal medium supplemented with increasing concentrations of tobramycin served as control. The biofilm were harvested and plated on LB plates to determine the CFU after treatment (For visual appearance “no growth” is arbitrarily given a CFU value of 2).
AB minimal medium without acetic acid, but supplemented with increasing concentrations of tobramycin served as control.
The wild-type P. aeruginosa PAO1 used for the planktonic and biofilm experiments was obtained from the Pseudomonas Genetic Stock Center (www.pseudomonas.med.ecu.edu, strain PAO0001). The wild-type S. aureus 8325-4, used for planktonic and biofilm experiments was described by Novick, R. P. 1967.
For plating, Luria broth (LB) medium mix with 2.0% agar was used. For all experiments including bacterial biofilms, AB minimal medium supplemented with glucose was used except if different is mentioned.
Planktonic cultures were grown in shake flasks at 37° C.
Static biofilm tolerance to acetic acid was assessed by exchanging the AB minimal medium of 24 h old biofilms with AB minimal medium supplemented with different concentrations of acetic acid or HCl as control. To raise the pH of either acetic acid or HCl, NaOH was added in different concentrations.
To elucidate a synergistic antimicrobial effect of acetic acid and antibiotics, static biofilms of P. aeruginosa were grown for 24 hours prior to subsequent treatment with increasing concentrations of tobramycin and 0.5% acetic acid in the pH interval 3-6.85. The pH was adjusted by supplementing the AB minimal medium with either HCl or NaOH.

Assay [1] relates to clinical mucoid P. aeruginosa isolate biofilm.
In assay [2] the test system is clinical non-mucoid P. aeruginosa isolate biofilm.
Assay [3] deals with P. aeruginosa PAO1 biofilm. Kind of assay: continuous flow chamber biofilm, 3-day-old, harvested and plated on LB plates for viability. Format: cell-based. An excerpt:
(§1) The wild-type P. aeruginosa PAO1 used for the planktonic and biofilm experiments was obtained from the Pseudomonas Genetic Stock Center (www.pseudomonas.med.ecu.edu, strain PAO0001). The wild-type S. aureus 8325-4, used for planktonic and biofilm experiments was described by Novick, R. P. 1967. For plating, Luria broth (LB) medium mix with 2.0% agar was used. For all experiments including bacterial biofilms, AB minimal medium supplemented with glucose was used except if different is mentioned. […] The continuous flow system is based on once through flow chambers perfused with sterile AB minimal medium containing 0.3 mM glucose as described by Christensen et al. (1999). Continuous flow biofilm tolerance to acetic acid was assessed by growing P. aeruginosa or S. aureus biofilms for three days, then subsequently at day three to four supplementing the AB minimal medium with different concentrations of acetic acid or HCl (HCL served as a as control to acetic acid treatments). […] Due to the buffer capacity of the AB minimal medium used, the pH of the solution became 4.33. […] After the treatment the biofilm biomasses were harvested mechanically from the flow chambers and plated on LB plates for determination of viability. […] The kinetics of antimicrobial activity against mature biofilms was tested by treating a 3-day-old continuous flow chamber biofilms of either P. aeruginosa with 0.5% or S. aureus with 1.0% acetic acid for 24 hours. Due to the buffer capacity of the AB minimal medium used the pH of the solution became 4.33. […] After the treatment the biofilms were harvested mechanically, by scraping with a sterile scalpel, from the flow chambers and plated on LB plates for determination of viable counts.

Another assay concerns S. aureus 8325-4 biofilm.
Text: as §1

Setting [4] is: 0.5% acetic acid, 24 hours, AB minimal medium, pH 4.33.
[5] abbreviates: 1.0% acetic acid, 24 hours, AB minimal medium, pH 4.33.

For the compound `O=C(O)c1cn(C2CC2)c2cc(N3CCNCC3)c(F)cc2c1=O` [ciprofloxaxine, reference compound], the “synergistic antimicrobial effect in combination with acetic acid” value with P. aeruginosa biofilm is “analogous synergistic effects”.

For the compound `CC(=O)O` [acetic acid], the eradication of biofilm result in assay [1] and in assay [2] was “eradicates the biofilms” in each case. The “eradication of mature biofilm (viability by plating)” value in assay [3] (0.5% acetic acid in sterile miliQ water) is on record as “Complete eradication”; in assay [3] (setting [4]) it was “completely eradicated”; in assay [3] (setting [5]), “completely eradicated”; with S. aureus 8325-4 biofilm (setting [4]), “reduced the number of viable cells”; in the assay with S. aureus 8325-4 biofilm (1.0% acetic acid in sterile miliQ water), “Complete eradication”; in the assay with S. aureus 8325-4 biofilm (setting [5]) it was “complete eradication”. Further, the “time to complete killing of all bacteria” value in assay [3] (0.5% acetic acid, AB minimal medium, pH 4.33) came to 3 h; in the assay with S. aureus 8325-4 biofilm (1.0% acetic acid, AB minimal medium, pH 4.33), 3 h. Moreover, the “antibacterial effect on static biofilm (CFU)” value in the assay with P. aeruginosa biofilm (0.5% acetic acid alone, pH 6.85) is recorded as “no antibacterial effect”. Also, the “antimicrobial effect on static biofilm (CFU)” value in the assay on P. aeruginosa biofilm (pH 5) is “reduced effect”; in the assay on P. aeruginosa biofilm (pH 5.5 and above) it was “no effect”; in the assay with P. aeruginosa biofilm (pH interval 3-4.76), “eradicated biofilms”.

Consider `NC[C@H]1O[C@H](O[C@H]2[C@H](O)[C@@H](O[C@H]3O[C@H](CO)[C@@H](O)[C@H](N)[C@H]3O)[C@H](N)C[C@@H]2N)[C@H](N)C[C@@H]1O` [tobramycin, reference compound], for which, in the assay on P. aeruginosa biofilm (tobramycin alone, concentrations above 12.5 μg/ml), the “reduction of bacterial viability” value worked out at 5 fold.

colistin [reference compound]: the “synergistic antimicrobial effect in combination with acetic acid” value in the assay on P. aeruginosa biofilm is “analogous synergistic effects”.

Turning to `Cl` [HCl, reference compound], the “eradication of mature biofilm (viability by plating)” value in assay [3] (AB minimal medium adjusted to pH 4.33 using HCl, 24 hours (control)) is “had no effect”.
